Experimental data published in ChEMBL document CHEMBL3885881, “DrugMatrix”.

Organism: Rattus norvegicus
Assay: DrugMatrix - Regimen: Daily Repeat
Assay type: toxicity, organism-based, Sprague-Dawley
Set-up: regimen Daily Repeat, gender Male, age 6-8 weeks
Conditions: in vivo, po, route oral GAVAGE, vehicle .5 % CMC; for ABSOLUTE BASOPHIL / ABSOLUTE EOSINOPHIL / ABSOLUTE LYMPHOCYTE / ABSOLUTE MONOCYTE / ABSOLUTE SEGMENTED NEUTROPHIL / BASOPHIL / EOSINOPHIL / ERYTHROCYTE COUNT / HEMATOCRIT / HEMOGLOBIN / LEUKOCYTE COUNT / LYMPHOCYTE / MEAN CORPUSCULAR HEMOGLOBIN / MEAN CORPUSCULAR HEMOGLOBIN CONCENTRATION / MEAN CORPUSCULAR VOLUME / MONOCYTE / NEUTROPHIL / NUCLEATED RED BLOOD CELLS / PLATELET COUNT: tissue Blood; for ALANINE AMINOTRANSFERASE / ALBUMIN / ALKALINE PHOSPHATASE / ASPARTATE AMINOTRANSFERASE / BLOOD UREA NITROGEN / CARBON DIOXIDE / CHLORIDE / CHOLESTEROL / CREATINE PHOSPHOKINASE / CREATININE / GLUCOSE / LACTATE DEHYDROGENASE / LIPASE / PHOSPHORUS / POTASSIUM / SODIUM / TOTAL BILIRUBIN / TOTAL PROTEIN / URIC ACID: tissue Plasma
[1] = 0 mg/kg, 72 h, dose level Control, time 3 day
[2] = 0 mg/kg, 120 h, dose level Control, time 5 day
[3] = 200 mg/kg, 72 h, dose level Low, time 3 day

`Cc1cnc(C(=O)NCCc2ccc(S(=O)(=O)NC(=O)NC3CCCCC3)cc2)cn1` [GLIPIZIDE] was tested, and the “ABSOLUTE BASOPHIL” value [1] was 0 CELLS/uL, the “ABSOLUTE EOSINOPHIL” value [1] was 0 CELLS/uL and the “ABSOLUTE LYMPHOCYTE” value [1] was 12191.17 CELLS/uL. The “ABSOLUTE MONOCYTE” value [1] was 183.17 CELLS/uL, the “ABSOLUTE SEGMENTED NEUTROPHIL” value [1] was 1192.33 CELLS/uL and the BASOPHIL [1] was 0%. For the same compound, the EOSINOPHIL [1] was 0%, the “ERYTHROCYTE COUNT” value [1] was 5.51 x10E6/uL and the HEMATOCRIT [1] was 35.45%. The HEMOGLOBIN [1] was 13.82 G/DL, the “LEUKOCYTE COUNT” value [1] was 13.57 x10E3/uL and the LYMPHOCYTE [1] was 89.83%. The “MEAN CORPUSCULAR HEMOGLOBIN” value [1] was 25.1 pg, the “MEAN CORPUSCULAR HEMOGLOBIN CONCENTRATION” value [1] was 38.98 G/DL and the “MEAN CORPUSCULAR VOLUME” value [1] was 64.42 fL. The MONOCYTE [1] was 1.33%, the NEUTROPHIL [1] was 8.83% and the “NUCLEATED RED BLOOD CELLS” value [1] was 0 /100WBC. For the same compound, the “PLATELET COUNT” value [1] was 1118.17 x10E3/uL, the “ALANINE AMINOTRANSFERASE” value [1] was 55 u/L and the ALBUMIN [1] was 4.15 G/DL. For the same compound, the “ALKALINE PHOSPHATASE” value [1] was 449.5 u/L, the “ASPARTATE AMINOTRANSFERASE” value [1] was 112.83 u/L and the “BLOOD UREA NITROGEN” value [1] was 17.33 mg/dL. For the same compound, the “CARBON DIOXIDE” value [1] was 29.5 mmol/L, the CHLORIDE [1] was 101 MEQ/L and the CHOLESTEROL [1] was 70 mg/dL. For the same compound, the “CREATINE PHOSPHOKINASE” value [1] was 1325.83 u/L, the CREATININE [1] was 0.18 mg/dL and the GLUCOSE [1] was 171.5 mg/dL. For the same compound, the “LACTATE DEHYDROGENASE” value [1] was 386 u/L, the LIPASE [1] was 10 u/L and the PHOSPHORUS [1] was 11.57 mg/dL. For the same compound, the POTASSIUM [1] was 6.21 MEQ/L, the SODIUM [1] was 141.65 MEQ/L and the “TOTAL BILIRUBIN” value [1] was 0.15 mg/dL. For the same compound, the “TOTAL PROTEIN” value [1] was 5.75 G/DL, the “URIC ACID” value [1] was 1.28 mg/dL and the “ABSOLUTE BASOPHIL” value [2] was 0 CELLS/uL. For the same compound, the “ABSOLUTE EOSINOPHIL” value [2] was 138.17 CELLS/uL, the “ABSOLUTE LYMPHOCYTE” value [2] was 13283.17 CELLS/uL and the “ABSOLUTE MONOCYTE” value [2] was 303.83 CELLS/uL. The “ABSOLUTE SEGMENTED NEUTROPHIL” value [2] was 1308.17 CELLS/uL, the BASOPHIL [2] was 0% and the EOSINOPHIL [2] was 1%. For the same compound, the “ERYTHROCYTE COUNT” value [2] was 5.32 x10E6/uL, the HEMATOCRIT [2] was 33.8% and the HEMOGLOBIN [2] was 13.63 G/DL. For the same compound, the “LEUKOCYTE COUNT” value [2] was 15.03 x10E3/uL, the LYMPHOCYTE [2] was 88.33% and the “MEAN CORPUSCULAR HEMOGLOBIN” value [2] was 25.68 pg. The “MEAN CORPUSCULAR HEMOGLOBIN CONCENTRATION” value [2] was 40.35 G/DL, the “MEAN CORPUSCULAR VOLUME” value [2] was 63.67 fL and the MONOCYTE [2] was 1.83%. For the same compound, the NEUTROPHIL [2] was 8.83%, the “NUCLEATED RED BLOOD CELLS” value [2] was 0 /100WBC and the “PLATELET COUNT” value [2] was 1097.5 x10E3/uL. The “ALANINE AMINOTRANSFERASE” value [2] was 54.5 u/L, the ALBUMIN [2] was 4.27 G/DL and the “ALKALINE PHOSPHATASE” value [2] was 337 u/L. For the same compound, the “ASPARTATE AMINOTRANSFERASE” value [2] was 94.67 u/L, the “BLOOD UREA NITROGEN” value [2] was 17 mg/dL and the “CARBON DIOXIDE” value [2] was 28.33 mmol/L. The CHLORIDE [2] was 101.5 MEQ/L, the CHOLESTEROL [2] was 71.33 mg/dL and the “CREATINE PHOSPHOKINASE” value [2] was 628.17 u/L. For the same compound, the CREATININE [2] was 0.19 mg/dL, the GLUCOSE [2] was 177.83 mg/dL and the “LACTATE DEHYDROGENASE” value [2] was 500.5 u/L. For the same compound, the LIPASE [2] was 9.5 u/L, the PHOSPHORUS [2] was 12.3 mg/dL and the POTASSIUM [2] was 5.63 MEQ/L. The SODIUM [2] was 143.03 MEQ/L, the “TOTAL BILIRUBIN” value [2] was 0.2 mg/dL and the “TOTAL PROTEIN” value [2] was 6.02 G/DL. The “URIC ACID” value [2] was 1.5 mg/dL, the “ABSOLUTE BASOPHIL” value [3] was 0 CELLS/uL and the “ABSOLUTE EOSINOPHIL” value [3] was 38 CELLS/uL. For the same compound, the “ABSOLUTE LYMPHOCYTE” value [3] was 11413.33 CELLS/uL, the “ABSOLUTE MONOCYTE” value [3] was 0 CELLS/uL and the “ABSOLUTE SEGMENTED NEUTROPHIL” value [3] was 882 CELLS/uL. For the same compound, the BASOPHIL [3] was 0%, the EOSINOPHIL [3] was 0.33% and the “ERYTHROCYTE COUNT” value [3] was 5.65 x10E6/uL. For the same compound, the HEMATOCRIT [3] was 34.83%, the HEMOGLOBIN [3] was 13.93 G/DL and the “LEUKOCYTE COUNT” value [3] was 12.33 x10E3/uL. The LYMPHOCYTE [3] was 92.67%, the “MEAN CORPUSCULAR HEMOGLOBIN” value [3] was 24.63 pg and the “MEAN CORPUSCULAR HEMOGLOBIN CONCENTRATION” value [3] was 40 G/DL. For the same compound, the “MEAN CORPUSCULAR VOLUME” value [3] was 61.63 fL, the MONOCYTE [3] was 0% and the NEUTROPHIL [3] was 7%. The “NUCLEATED RED BLOOD CELLS” value [3] was 0 /100WBC, the “PLATELET COUNT” value [3] was 1245 x10E3/uL and the “ALANINE AMINOTRANSFERASE” value [3] was 51.33 u/L. For the same compound, the ALBUMIN [3] was 4.23 G/DL, the “ALKALINE PHOSPHATASE” value [3] was 334.33 u/L and the “ASPARTATE AMINOTRANSFERASE” value [3] was 84.33 u/L. The “BLOOD UREA NITROGEN” value [3] was 15.33 mg/dL, the “CARBON DIOXIDE” value [3] was 27.33 mmol/L and the CHLORIDE [3] was 103.33 MEQ/L. For the same compound, the CHOLESTEROL [3] was 74.33 mg/dL, the “CREATINE PHOSPHOKINASE” value [3] was 335 u/L and the CREATININE [3] was 0.13 mg/dL. For the same compound, the GLUCOSE [3] was 133.67 mg/dL, the “LACTATE DEHYDROGENASE” value [3] was 97.33 u/L and the LIPASE [3] was 10.33 u/L. It also gave a PHOSPHORUS [3] of 11.7 mg/dL, a POTASSIUM [3] of 5.79 MEQ/L and an SODIUM [3] of 143.47 MEQ/L. The “TOTAL BILIRUBIN” value [3] was 0.13 mg/dL, the “TOTAL PROTEIN” value [3] was 5.77 G/DL and the “URIC ACID” value [3] was 1.43 mg/dL.
